In patent US6380178B1, “Cyclic regimens using cyclocarbamate and cyclic amide derivatives” (American Home Products Corporation, priority 1999, dated 2002) one finds melting point data, which are given here for 2 molecules.

Broadly, the melting point is the temperature of the solid-liquid transition. `CC1(C)OC(=O)Nc2sc(-c3cccc(Cl)c3)cc21` [Example 1, 6-(3-chlorophenyl)-1,4-dihydro-4,4-dimethyl-2H-thieno[2,3-d][1,3]oxazine-2-one] registered a melting point of 149 to 150 °C. In the case of `CC1(C)OC(=O)Nc2cc(-c3cccc(Cl)c3)sc21` [Example 2, 6-(3-chlorophenyl)-1,4-dihydro-4,4-dimethyl-2H-thieno[3,2-d][1,3]oxazine-2-one], the melting point is 123 to 125 °C.
